{"source": "patent US11602531B2", "about": "“Vacuole-inducing compounds, methods of making and using the same” (The University of Toledo, priority 2017, dated 2023)", "assay_type_in_all_cases": "cell-based, human", "key": {"U251 glioblastoma cells [1]": {"tested_on": "U251 glioblastoma cells", "assay": "Immunoblot quantification of exosome marker proteins (CD63, Alix, LAMP-1) in purified exosomes and in cells", "settings": "10 μM MOPIPP or 1 μM vacuolin-1, western blot; for changes in expression of CD63, Alix and LAMP-1 in the corresponding cell populations: cell lysates, 24 h; for relative amounts of CD63, Alix and LAMP-1 in extracellular vesicle preparations versus control: exosomes from 24 h conditioned medium", "description": "(§1) Prior to beginning studies, cells were seeded in 10 cm diameter culture dishes at 500,000 cells/dish and maintained for 24 h in DMEM supplemented with 10% Gibco™ exosome-depleted FBS (ThermoFisher Scientific, Waltham, Mass.). The medium was then replaced with fresh medium containing either 10 μM MOPIPP (synthesized as described in Trabbic et al., “Differential Induction of Cytoplasmic Vacuolization and Methuosis by Novel 2-Indolyl-Substituted Pyridinylpropenones, ACS Med. Chem. Lett., 5 (2014) 73-77) or 1 μM vacuolin-1 (Santa Cruz Biotechnology, Santa Cruz, Calif.) dissolved in DMSO. Control cultures contain an equivalent volume of the DMSO vehicle (0.1%) in the medium. After 24 h, the medium was collected from the dishes (typically 10-12 dishes per condition) and the attached cells were pooled and counted with a Coulter Counter (model Z1). Exosomes were isolated from medium using the Exo-Spin™ Exosome Purification system (Cell Guidance Systems, St. Louis, Mo.). The medium was pre-cleared by centrifugation at 4° C., first at 300×g for 10 min and then at 16,000×g for 30 min. Then a volume of Buffer A equal to half the volume of medium was added and the mixture was incubated overnight at 4° C. The precipitate, enriched with exosomes, was collected by centrifugation at 16,000×g for 1 h, and the pellet was re-suspended in […] Dulbecco's phosphate-buffered saline (PBS), pH 7.4. The material was applied to an Exo-Spin column equilibrated with PBS, and the purified exosomes were eluted in 200 μl of PBS.\nThe cells in the dishes used for collection of exosomes were washed three times with PBS and lysed in SDS sample buffer (Laemmli, “Cleavage of structural proteins during the assembly of the head of bacteriophage T4, Nature, 227 (1970) 680-685). The protein concentration was determined by colorimetric assay using Bio-Rad reagent (Bio-Rad, Richmond, Calif.). Samples containing equal amounts of total cell protein were subjected to SDS-PAGE and immunoblot analysis (as described in Maltese et al., “Retention of the Alzheimer's amyloid precursor fragment C99 in the endoplasmic reticulum prevents formation of amyloid beta-peptide, J. Biol. Chem., 276 (2001) 20267-20279). For analysis of proteins in exosomes, equal volumes of purified exosomes isolated from control or treated cells were mixed with ⅕ volume of 5×SDS sample buffer prior to SDS-PAGE. Monoclonal antibodies against CD63 and LAMP-1 were obtained from the Developmental Studies Hybridoma Bank (Iowa City, Iowa). […] Chemiluminescent signals on the membranes were quantified using an Alpha Innotech FluorChem HD2 imaging system with Alpha View software."}, "U251 glioblastoma cells [2]": {"tested_on": "U251 glioblastoma cells", "assay": "Cell counts, proliferation and viability of treated cultures (Coulter Counter)", "settings": "for cell attachment and proliferation despite vacuolization / growth inhibition (cell numbers versus DMSO control): U251 cells, 24 h; for cell attachment and proliferation despite vacuolization / cell proliferation and viability: 10 μM MOPIPP or 1 μM vacuolin-1; for growth inhibition (cell numbers versus DMSO control): 10 μM MOPIPP or 1 μM vacuolin-1, Coulter Counter; for cell proliferation and viability: U251 glioblastoma cells", "description": "U251 human glioblastoma cells were purchased from the DCT Tumor Repository (National Cancer Institute, Frederick, Md.). Stock cultures were maintained in Dulbecco's modified Eagle medium (DMEM) containing 10% (v/v) fetal bovine serum (FBS) (JR Scientific, Woodland, Calif.) at 37° C. with an atmosphere of 5% CO2 in air. Cultures were passaged for less than 6 months and were monitored periodically for Mycoplasma contamination.\nas §1"}, "U251 glioblastoma cells [3]": {"tested_on": "U251 glioblastoma cells", "assay": "Vacuolization of U251 cells by phase contrast and electron microscopy", "settings": "24 h; for vacuolization of endocytic compartments (accumulation of vacuoles): 10 μM MOPIPP or 1 μM vacuolin-1, phase contrast microscopy"}, "U251 glioblastoma cells [4]": {"tested_on": "U251 glioblastoma cells", "assay": "RT-PCR analysis of miRNAs in cells and exosomes", "settings": "for relative abundance of miR-21-5p in exosomal RNA: equal amounts of exosomal RNA, raw Ct values, three independent experiments", "description": "Prior to beginning studies, cells were seeded in 10 cm diameter culture dishes at 500,000 cells/dish and maintained for 24 h in DMEM supplemented with 10% Gibco™ exosome-depleted FBS (ThermoFisher Scientific, Waltham, Mass.). The medium was then replaced with fresh medium containing either 10 μM MOPIPP (synthesized as described in Trabbic et al., “Differential Induction of Cytoplasmic Vacuolization and Methuosis by Novel 2-Indolyl-Substituted Pyridinylpropenones, ACS Med. Chem. Lett., 5 (2014) 73-77) or 1 μM vacuolin-1 (Santa Cruz Biotechnology, Santa Cruz, Calif.) dissolved in DMSO. Control cultures contain an equivalent volume of the DMSO vehicle (0.1%) in the medium. After 24 h, the medium was collected from the dishes (typically 10-12 dishes per condition) and the attached cells were pooled and counted with a Coulter Counter (model Z1). Exosomes were isolated from medium using the Exo-Spin™ Exosome Purification system (Cell Guidance Systems, St. Louis, Mo.). The medium was pre-cleared by centrifugation at 4° C., first at 300×g for 10 min and then at 16,000×g for 30 min. Then a volume of Buffer A equal to half the volume of medium was added and the mixture was incubated overnight at 4° C. The precipitate, enriched with exosomes, was collected by centrifugation at 16,000×g for 1 h, and the pellet was re-suspended in […] Dulbecco's phosphate-buffered saline (PBS), pH 7.4. […]\nTotal RNA was extracted and purified from cultured cells or exosomes using QIAzol™ lysis reagent followed by RNAeasy Mini spin-columns, according to the manufacturer's protocol (SA Biosciences/Qiagen, Germantown, Md.). […] RNA and cDNA were quantified and checked for purity (OD 260/280) using a Nano-Drop-1000 spectrophotometer (ThermoFisher). […] For comparisons of the miRNA contents of exosomes collected from the medium of cells treated with MOPIPP, vacuolin-1 or vehicle (DMSO), individual miScript primers were purchased for six of the most highly expressed miRNAs detected in U251 cells (SA Biosciences/Qiagen). […]"}}, "data": [{"smiles": "CCCc1[nH]c2ccc(OC)cc2c1C=CC(=O)c1ccncc1", "note": "[MOPIPP, 3-(5-methoxy-2-propyl-1H-indol-3-yl)-1-(4-pyridinyl)-2-propen-1-one]", "values": [{"measurement": "changes in expression of CD63, Alix and LAMP-1 in the corresponding cell populations", "setting": "U251 glioblastoma cells [1]", "result": "comparatively modest"}, {"measurement": "relative amounts of CD63, Alix and LAMP-1 in extracellular vesicle preparations versus control", "setting": "U251 glioblastoma cells [1]", "result": "increased by several fold"}, {"measurement": "cell attachment and proliferation despite vacuolization", "setting": "U251 glioblastoma cells [2]", "result": "remained attached to the culture dishes and continued to proliferate"}, {"measurement": "growth inhibition (cell numbers versus DMSO control)", "setting": "U251 glioblastoma cells [2]", "result": "lack of growth inhibition"}, {"measurement": "cell proliferation and viability", "setting": "U251 glioblastoma cells [2]", "result": "not markedly impaired"}, {"measurement": "vacuolization of endocytic compartments (accumulation of vacuoles)", "setting": "U251 glioblastoma cells [3]", "result": "resulted in vacuolization of endocytic compartments"}, {"measurement": "subpopulation of vacuoles containing clusters of heterogeneous vesicles (ILV/exosome size)", "setting": "U251 glioblastoma cells [3]; 10 μM MOPIPP, electron microscopy", "result": "20-30%"}, {"measurement": "cellular expression of 13 selected miRNAs", "setting": "U251 glioblastoma cells [4]; U251 cells, 24 h, 10 μM MOPIPP versus DMSO, RT-PCR", "result": "did not cause major changes"}, {"measurement": "relative abundance of miR-21-5p in exosomal RNA", "setting": "U251 glioblastoma cells [4]", "result": "no observations of any changes"}]}, {"smiles": "Ic1cccc(/C=N/Nc2nc(N3CCOCC3)nc(N(c3ccccc3)c3ccccc3)n2)c1", "note": "[vacuolin-1, reference compound]", "values": [{"measurement": "changes in expression of CD63, Alix and LAMP-1 in the corresponding cell populations", "setting": "U251 glioblastoma cells [1]", "result": "comparatively modest"}, {"measurement": "relative amounts of CD63, Alix and LAMP-1 in extracellular vesicle preparations versus control", "setting": "U251 glioblastoma cells [1]", "result": "An even greater increase"}, {"measurement": "cell attachment and proliferation despite vacuolization", "setting": "U251 glioblastoma cells [2]", "result": "remained attached to the culture dishes and continued to proliferate"}, {"measurement": "growth inhibition (cell numbers versus DMSO control)", "setting": "U251 glioblastoma cells [2]", "result": "lack of growth inhibition"}, {"measurement": "cell proliferation and viability", "setting": "U251 glioblastoma cells [2]", "result": "not markedly impaired"}, {"measurement": "vacuolization of endocytic compartments (accumulation of vacuoles)", "setting": "U251 glioblastoma cells [3]", "result": "induced a very similar phenotype"}, {"measurement": "relative abundance of miR-21-5p in exosomal RNA", "setting": "U251 glioblastoma cells [4]", "result": "no observations of any changes"}]}]}
